Twelve molecules from patent US10577362B2, “Substituted 2, 4-diamino-quinoline derivatives for use in the treatment of proliferative diseases” (GENOSCIENCE PHARMA, priority 2016, dated 2020) can be followed below.

Each structure is given as a SMILES string. Counter-ions that a name gives are not always drawn.

What all share (assay type): cell-based, human
Experiment [1] has as its system Huh7 (hepatocellular carcinoma) cell line. The experiment can be described thus: CellTiter-Glo luminescent cell viability assay, Huh7. The settings on record: Homo sapiens, Huh-7; for EC50: Huh7 cell line, 72 h incubation, CellTiter-Glo, read-out: EC50, growth inhibition of Huh7; for viability at 4 µM: Huh7, compound at 4 μM; for viability at 4 µM / viability at 10 µM: 72 h; for viability at 10 µM: Huh7, compound at 10 μM. On the procedure:
(§1) All cell lines were maintained in medium containing 1% penicillin-streptomycin (Dutscher, P06-07100) and 10% Fetal Bovine Serum (Hyclone Dutscher, RZK35922) cultured at 37° C. with 5% CO2. HepG2 (hepatocellular carcinoma), cell line was cultured in Dulbecco's modified Eagle's medium low glucose (Gibco, 21885025), Huh7 (hepatocellular carcinoma), HCT-116 (colorectal carcinoma), PANC-1 (prancreatic carcinoma) and A375 (malignant melanoma) cell lines were cultured in Dulbecco's modified Eagle's medium (Dutscher, L0103). MOLM-14 (acute myeloid leukemia) cell line was maintained in MEM alpha medium (Gibco, 22561-021). 786-0 (renal adenocarcinoma) cell lines were maintained in RPMI 1640 medium (Dutscher, L0498).
(§2) Cell viability was measured using the CellTiter-Glo® luminescent cell viability assay as described by the manufacturer (Promega, Ref G7571) using an Infinite F200Pro luminometer (Tecan). Briefly, for adherent cells, cells were plated onto 96-well plates (white with clear bottom) in 90 μL of media per well and were allowed to grow overnight before the assay. For cells growing in suspension, cells were plated onto 96-well plates 1 h before the assay.
(§3) Compounds were resuspended in H2O or DMSO and added at different concentrations to each well, and cell cultures were incubated for 72 h. Each diluent (H2O or DMSO) were used as a control, and all compounds were tested in a constant percentage of H2O or DMSO. On the day of the reading, plates are equilibrated 30 min at room temperature before the addition of 100 μL of CellTiter-Glo® and luminescence was measured using an Infinite F200Pro (Tecan). % cell viability were expressed as a percentage of the signal obtained for cell cultures treated with diluent. EC50 values were determined as the dose of compound required to reduce luminescent values to 50% of the signal obtained for cell cultures treated with diluent. The experimental data were analyzed using a computer program, Graphpad Prism v5 (GraphPad Software, Inc. La Jolla, Calif.). All points were at least done in duplicate.
Background: ATP-based viability assays read luminescence as a measure of living cells.

In experiment [2] the test system is HepG2 (hepatocellular carcinoma) cell line. In words: CellTiter-Glo luminescent cell viability assay, HepG2. The following applies: Homo sapiens; for viability at 4 µM / viability at 10 µM: HepG2, HepG, 72 h; for viability at 4 µM: compound at 4 μM; for viability at 10 µM: compound at 10 μM; for EC50: HepG2 cell line, 72 h incubation, CellTiter-Glo, read-out: EC50, growth inhibition of HepG2. How it is done:
as §1, §2, §3

The subject of experiment [3] is HCT-116 (colorectal carcinoma) cell line. The experiment can be described thus: CellTiter-Glo luminescent cell viability assay, HCT-116. The settings on record: Homo sapiens; for viability at 4 µM: HCT-116, compound at 4 μM; for viability at 4 µM / viability at 10 µM: 72 h; for viability at 10 µM: HCT-116, compound at 10 μM; for EC50: HCT-116 cell line, 72 h incubation, CellTiter-Glo, read-out: EC50, growth inhibition of HCT-116. How it is done: as §1, §2, §3

For experiment [4], the system named is 786-O (renal adenocarcinoma) cell line. The experiment can be described thus: CellTiter-Glo luminescent cell viability assay, 786-O. The following applies: Homo sapiens, 786-0; for viability at 4 µM / viability at 10 µM: 786-O, 72 h; for viability at 4 µM: compound at 4 μM; for viability at 10 µM: compound at 10 μM; for EC50: 786-O cell line, 72 h incubation, CellTiter-Glo, read-out: EC50, growth inhibition of 786-O. On the procedure:
as §1, §2, §3

The subject of experiment [5] is A375 (malignant melanoma) cell line. The experiment can be described thus: CellTiter-Glo luminescent cell viability assay, A375. The following applies: Homo sapiens, A-375; for viability at 4 µM: A375, compound at 4 μM; for viability at 4 µM / viability at 10 µM: 72 h; for viability at 10 µM: A375, compound at 10 μM; for EC50: A375 cell line, 72 h incubation, CellTiter-Glo, read-out: EC50, growth inhibition of A375. On the procedure:
as §1, §2, §3

Experiment [6] relates to MOLM-14 (acute myeloid leukemia) cell line. In words: CellTiter-Glo luminescent cell viability assay, MOLM-14. The following applies: Homo sapiens; for viability at 4 µM: MOLM-14, compound at 4 μM; for viability at 4 µM / viability at 10 µM: 72 h; for viability at 10 µM: MOLM-14, compound at 10 μM; for EC50: MOLM-14 cell line, 72 h incubation, CellTiter-Glo, read-out: EC50, growth inhibition of MOLM-14. On the procedure: as §1, §2, §3

With `O=C(C1CCN(c2cc(NCc3ccc(Cl)cc3)nc3ccccc23)CC1)N1CCCC1` [Compound 1648, 2-(4-chlorobenzylamino)-4-[4-(pyrrolidine-1-carbonyl)piperidin-1-yl]quinoline, hydrochloride], the concentration for a half-maximal effect (EC50) (commonly the concentration giving half of the maximal effect) in experiment [1] lay in the range of 0.5 to 5 µM.
Regarding `COc1ccc(OC2CCN(c3c(C#N)c(NCc4ccc(Cl)cc4)nc4ccccc34)C2)cc1` (centres unmarked) [Compound 3334CN, 2-(4-chlorobenzylamino)-3-cyano-4-[3-(4-methoxyphenoxy)pyrrolidin-1-yl]quinoline], the viability (as a rule, a read-out of living cells in per cent, often relative to untreated cells) at 4 µM in experiment [2] stood at 97.7%; in experiment [3], 92.8%; in experiment [4] it was 93.6%; in experiment [1], 89.9%; in experiment [5], 93.2%; in experiment [6], 105%. The viability at 10 µM in experiment [2] amounted to 89.1%; in experiment [3] it was 88.6%; in experiment [4] it was 91.2%; in experiment [1], 94.4%; in experiment [5] it was 90%; in experiment [6] it was 96.5%.
With `Cc1cc(F)cc2c(N3CCC(NC(C)(C)C)CC3)cc(NCc3ccc(Cl)cc3)nc12` [Compound 580, 2-(4-chlorobenzylamino)-4-[4-(tert-butylamino)piperidin-1-yl]-6-fluoro-8-methylquinoline], the EC50 in experiment [2], in experiment [3], in experiment [4], in experiment [5] and in experiment [6] was 0.5 to 5 µM in each case.
Regarding `CC(C)(C)NC(=O)C1CCN(c2cc(NCc3ccc(Cl)cc3)nc3ccccc23)CC1` [Compound 1604, 2-(4-chlorobenzylamino)-4-[4-(tert-butylaminocarbonyl)-piperidin-1-yl]-quinoline hydrochloride], the EC50 in experiment [2] was in the range of 0.5 to 5 µM; in experiment [3] it was 5 to 10 µM; in experiment [4], 5 to 10 µM; in experiment [1] it was 0.5 to 5 µM; in experiment [5], 5 to 10 µM; in experiment [6] it was 5 to 10 µM.
In the case of `Cc1ccc(OC2CCN(c3c(C#N)c(NCc4ccc(Cl)cc4)nc4ccccc34)C2)cc1` (centres unmarked) [Compound 3332CN, 2-(4-chlorobenzylamino)-3-cyano-4-[3-(4-methylphenoxy)pyrrolidin-1-yl]quinoline], the viability at 4 µM worked out at 65.6% in experiment [2]; 101% in experiment [3]; 52% in experiment [4]; 95.3% in experiment [1]; 108% in experiment [5]; 104% in experiment [6]. Besides, the viability at 10 µM in experiment [2] turned out to be 62.5%; in experiment [3] it was 87.2%; in experiment [4], 25%; in experiment [1], 58.3%; in experiment [5], 103%; in experiment [6] it was 94.1%.
`N#Cc1c(NCc2ccc(Cl)cc2)nc2ccccc2c1N1CCC(Oc2ccncc2)C1` (centres unmarked) [Compound 3344CN, 2-(4-chlorobenzylamino)-3-cyano-4-{3-[(pyridin-4-yl)oxy]pyrrolidin-1-yl}quinoline]: the viability at 4 µM in experiment [2] is 94.1%; in experiment [3], 91.6%; in experiment [4] it was 81.9%; in experiment [1] it was 50.2%; in experiment [5], 83.7%; in experiment [6], 103%. Also, the viability at 10 µM in experiment [2] was 62.7%; in experiment [3], 48%; in experiment [4] it was 52.6%; in experiment [1], 40.1%; in experiment [5] it was 60.3%; in experiment [6], 57.8%.
As to `CNC(=O)C1CCN(c2cc(NCc3ccc(Cl)cc3)nc3ccccc23)CC1` [Compound 1598, 2-(4-chlorobenzylamino)-4-[4-(methylcarbamoyl)piperidin-1-yl]quinoline hydrochloride], the EC50 in experiment [2] lay within 0.5 to 5 µM; in experiment [3], 0.5 to 5 µM; in experiment [4] it was 5 to 10 µM; in experiment [1], 0.5 to 5 µM; in experiment [5], 5 to 10 µM; in experiment [6], 5 to 10 µM.
Turning to `Cc1ccnc(Nc2ccc(Nc3nc4ccccc4c(N4CCC(NC(C)(C)C)CC4)c3C#N)cc2)n1` [Compound 532CN, 2-[4-(4-methylpyrimidin-2-ylamino)phenylamino]-3-cyano-4-(4-tert-butylaminopiperidin-1-yl)quinoline], the EC50 fell in the range of 5 to 10 µM in experiment [2]; 0.5 to 5 µM in experiment [3]; 0.5 to 5 µM in experiment [4]; 5 to 10 µM in experiment [1]; 0.5 to 5 µM in experiment [5]; 5 to 10 µM in experiment [6].
As to `Cc1c(Nc2cccc(Nc3nccc(C(F)(F)F)n3)c2)nc2ccccc2c1N1CCC(NC(C)(C)C)CC1` [Compound 540Me, 2-[3-(4-trifluoromethylpyrimidin-2-ylamino)phenylamino]-3-methyl-4-(4-tert-butylaminopiperidin-1-yl)quinoline], the viability at 4 µM came to 38.3% in experiment [2]; 0.4% in experiment [3]; 2.6% in experiment [4]; 63.9% in experiment [1]; 1.6% in experiment [5]; 63.1% in experiment [6]. Besides, the viability at 10 µM in experiment [2] came out at 0.1%; in experiment [3], 0.1%; in experiment [4], 0.1%; in experiment [1], 0.2%; in experiment [5], 0.1%; in experiment [6] it was 0.3%.
Turning to `COC(=O)c1c(NCc2ccc(Cl)cc2)nc2ccccc2c1N1CCC(NC(C)(C)C)CC1` [Compound 354, methyl 4-(4-(tert-butylamino)piperidin-1-yl)-2-(4-chlorobenzylamino) quinoline-3-carboxylate], the 50% effective concentration (EC50) in experiment [2] fell in the range of 5 to 10 µM; in experiment [3] it was 0.5 to 5 µM; in experiment [4], 0.5 to 5 µM; in experiment [1], 0.5 to 5 µM; in experiment [5], 0.5 to 5 µM; in experiment [6] it was 0.5 to 5 µM.
On to `N#Cc1c(NCc2ccc(Cl)cc2)nc2ccccc2c1N1CCC(Oc2cccc(F)c2)CC1` [Compound 3228CN, 2-(4-chlorobenzylamino)-3-cyano-4-[4-(3-fluorophenoxy)piperidin-1-yl]quinoline], for which the viability at 4 µM in experiment [2] stood at 96.7%; in experiment [3], 101%; in experiment [4] it was 97.9%; in experiment [1] it was 117%; in experiment [5] it was 98%; in experiment [6], 107%. Further, the viability at 10 µM in experiment [2] turned out to be 86.7%; in experiment [3], 85.2%; in experiment [4] it was 92.9%; in experiment [1] it was 108%; in experiment [5], 91.7%; in experiment [6], 100%.
As to `OC1CCN(c2cc(NCc3ccc(Cl)cc3)nc3ccccc23)CC1` [Compound 2916, 2-(4-chlorobenzylamino)-4-(4-hydroxypiperidin-1-yl)quinoline, hydrochloride], the half-maximal effective concentration (EC50) is 0.5 to 5 µM in experiment [2]; 5 to 10 µM in experiment [3]; 5 to 10 µM in experiment [4]; 0.5 to 5 µM in experiment [1]; 5 to 10 µM in experiment [5].
